Results published in EP3050567B1, “COMPOUND FOR ACTIVATING AMPK AND USES THEREOF” (Energenesis Biomedical Co., Ltd., priority 2013, dated 2015).

Tests used:
TNFα = assay: LPS-induced inflammatory response in THP1 macrophages, secreted TNFα (ELISA); format: cell-based, human; details: 50 ng LPS 6 hr
Description: (§1) Effects of adenine on inflammatory response were evaluated in human THP1 macrophage by examining protein level of intracellular COX-2 and secreted TNFα, IL-1β and IL-6. Differentiation of THP1 monocytes into macrophages was induced by 50 nM PMA for 24 hr. THP1 macrophages were further stimulated by 50 ng LPS for 6 hr in the presence of 10-600 µM of adenine or vehicle followed by cell lysis and western blot analysis. Equal amounts of protein were separated by SDS-PAGE and then electroblotted on to PVDF membranes. Membranes were blocked with 3% BSA in PBS for 60 min and incubated with an anti-COX-2 antibody (1:1,000, Cell signaling), an anti-actin antibody (1:5,000, Cell signaling) at 4° C for 16 h followed by the corresponding secondary antibody for 1 h at room temperature (RT). Immunoreactive bands were detected by enhanced chemiluminescence and recorded using Kodak film. The detected signals were scanned and then quantified using TotalLab Quant software (TotalLab). The secreted TNFα, IL-1β and IL-6 were analyzed by enzyme-linked immunosorbent assays.

[1] = tested on: Human umbilical vein endothelial cells (HUVECs); assay: ROS production (H2DCF-DA) under high glucose; format: cell-based; details: 30 mM glucose, 24 h
Description: Human umbilical vein endothelial cells (HUVECs) were cultured in Dulbecco's modified Eagle's medium (DMEM) containing 10% fetal bovine serum (FBS), 4 mM L-glutamine, 2 mM sodium pyruvate and 1% penicillin/streptomycin (Invitrogen GibcoBRL, Carlsbad, Calif., USA) at 37°C under 5% CO2. Cells were plated at 2×10^4 per well in black 96-well. Twenty-four hours after plating, medium was changed to fresh DMEM containing either 5.6 or 30 mM glucose and treated with indicated concentration of adenine. Twenty-four hours after treatment, the intracellular ROS was detected using H2DCF-DA. Cells were washed once with PBS and then incubated with 100 µM DCF at 37°C for 30 min. Then the fluorescence of DCF was measured using a Fluorescence Microplate Reader System at 485-nm excitation and 530-nm emission wavelengths.

IL-1β = assay: LPS-induced inflammatory response in THP1 macrophages, secreted IL-1β (ELISA); format: cell-based, human; details: 50 ng LPS 6 hr
Description: as §1

AMPK [2] = assay: AMPK activation assay (phospho-AMPK Thr172 western blot) in HUVEC cells; format: cell-based, human; details: 30 min
Description: (§2) Effects of adenine on AMPK activation were evaluated based on the phosphorylation of AMPK protein upon adenine treatment. Mouse muscle cell C2C12, mouse fibroblast 3T3, human liver carcinoma cell Hep G2, human breast adenocarcinoma cell line MCF7 and human colon adenocarcinoma grade II cell line HT29, human umbilical vein endothelial cell HUVEC, Human acute monocytic leukemiacell THP1, human macrophage cell U937, murine microglia cell BV-2, and mouse neuroblastoma cell Neuro2A and dermal papilla cell were cultured in high-glucose Dulbecco's modified Eagle's medium (DMEM) containing 10% fetal bovine serum (FBS), 4 mM L-glutamine, 2 mM sodium pyruvate and 1% penicillin/streptomycin (Invitrogen GibcoBRL, Carlsbad, Calif., USA) at 37°C, under 5% CO2. Cells were plated at 3 × 10^5 per well in 6-well plates. Twenty-four hours after plating, adenine was added to the culture media as indicated. After 30 min cells were lysed and subject to western blot analysis. Equal amount of protein from each sample was separated by SDS-PAGE and then electroblotted on to PVDF membranes. Membranes were blocked with 3% BSA in PBS for 60 min and incubated with an anti-phospho-AMPK (Thr172) antibody (1:2,000, Cell signaling) or an anti-AMPK antibody (1:2,000, Cell signaling) at 4°C for 16 h followed by the corresponding secondary antibody for 1 h at room temperature (RT). Immunoreactive bands were detected by enhanced chemiluminescence and recorded using Kodak film. The detected signals were scanned and then quantified using TotalLab Quant software (TotalLab).

Hep G2 cells = assay: Tumor growth assay, Hep G2 implanted subcutaneously; format: in vivo; details: Hep G2 implanted NOD-SCID mice, daily IP adenine 5, 20 or 50 mg/kg, 14 days post implantation, vs control mice
Description: Human liver hepatocellular carcinoma cell line Hep G2 were cultured in high-glucose Dulbecco's modified Eagle's medium (DMEM) containing 10% fetal bovine serum (FBS), 4 mM L-glutamine, 2 mM sodium pyruvate and 1% penicillin/streptomycin (Invitrogen GibcoBRL, Carlsbad, Calif., USA) at 37°C under 5% CO2. For tumor implantation, 5 × 10^6 Hep G2 cells were injected subcutaneously into 8-week-old male nonobese diabetic-severe combined immunodeficiency (NOD-SCID) mice. After implantation, the mice were daily intraperitoneally injected with 5, 20 or 50 mg/kg body weight of adenine and the tumor size was monitored every 3 days.

AMPK [3] = assay: AMPK activation assay (phospho-AMPK Thr172 western blot) in BV-2 cells; format: cell-based, murine; details: 30 min
Description: as §2

LC3 = assay: Autophagy assay (LC3-II/LC3-I western blot) in Neuro2A cells; format: cell-based, mouse; details: 24 h
Description: Effects of adenine on Amyloid β peptide were analyzed in mouse neuroblastoma cell Neuro2A. Neuro2A cells were cultured in high-glucose Dulbecco's modified Eagle's medium (DMEM) containing 10% fetal bovine serum (FBS), 4 mM L-glutamine, 2 mM sodium pyruvate and 1% penicillin/streptomycin (Invitrogen GibcoBRL, Carlsbad, Calif., USA) at 37°C under 5% CO2. Cells were plated at 3 × 10^5 per well (6-well plate). 24 h after plating, cells were transfected with human APP695 and treated with indicated concentration of adenine for 24 h followed by cell lysis and western blot analysis. Equal amounts of protein were separated by SDS-PAGE and then electroblotted on to PVDF membranes. Membranes were blocked with 3% BSA in PBS for 60 min and incubated with an anti-Aβ antibody (1:1,000, abcam), an anti-LC3 antibody (1:1,000, Cell signaling), and an anti-actin antibody (1:5,000, Cell signaling) at 4°C for 16 h followed by the corresponding secondary antibody for 1 h at room temperature (RT). Immunoreactive bands were detected by enhanced chemiluminescence and recorded using Kodakfilm. The detected signals were scanned and then quantified by using TotalLab Quant software (TotalLab).

AMPK [4] = assay: AMPK activation assay (phospho-AMPK Thr172 western blot) in Hep G2 cells; format: cell-based, human; details: 30 min
Description: as §2

In the case of `Nc1ncnc2nc[nH]c12` [Adenine, adenine], the “TNFα (% to control)” value (TNFα; adenine 10 microM) is reported as 85±9.1 % to control, the “TNFα (% to control)” value (TNFα; adenine 100 microM) is reported as 41±2.6 % to control and the “TNFα (% to control)” value (TNFα; adenine 600 microM) is reported as 23±1.8 % to control. The “ROS production (% of 5.6 mM glucose)” value ([1]; adenine 10 microM) was 211 ± 4.3 % of 5.6 mM glucose, the “ROS production (% of 5.6 mM glucose)” value ([1]; adenine 100 microM) was 116 ± 1.7 % of 5.6 mM glucose and the “ROS production (% of 5.6 mM glucose)” value ([1]; adenine 200 microM) was 38.1 ± 2.9 % of 5.6 mM glucose. The “ROS production (% of 5.6 mM glucose)” value ([1]; adenine 600 microM) was 21.7 ± 3.1 % of 5.6 mM glucose, the “ROS production (% of 5.6 mM glucose)” value ([1]; adenine 1200 microM) was 22.4 ± 2.5 % of 5.6 mM glucose and the “IL-1β □ (%to control)” value (IL-1β; adenine 10 microM) was 91±8.4 %to control. The “IL-1β □ (%to control)” value (IL-1β; adenine 100 microM) was 29±5.5 %to control, the “IL-1β □ (%to control)” value (IL-1β; adenine 600 microM) was 17±3.7 %to control and the “AMPK activation (fold to control)” value (AMPK [2]; adenine 1 microM) was 1.2 fold to control. For the same compound, the “AMPK activation (fold to control)” value (AMPK [2]; adenine 10 microM) was 1.9 fold to control, the “AMPK activation (fold to control)” value (AMPK [2]; adenine 100 microM) was 3.2 fold to control and the “AMPK activation (fold to control)” value (AMPK [2]; adenine 200 microM) was 3.9 fold to control. The “AMPK activation (fold to control)” value (AMPK [2]; adenine 600 microM) was 4.1 fold to control, the growth of tumor (Hep G2 cells) was “significantly retarded” and the “AMPK activation (fold to control)” value (AMPK [3]; adenine 1 microM) was 1.2 fold to control. The “AMPK activation (fold to control)” value (AMPK [3]; adenine 10 microM) was 1.7 fold to control, the “AMPK activation (fold to control)” value (AMPK [3]; adenine 40 microM) was 2.6 fold to control and the “AMPK activation (fold to control)” value (AMPK [3]; adenine 160 microM) was 3.2 fold to control. The “LC3-II/LC3-I ratio (relative to control)” value (LC3; adenine 10 microM) was 1.2 ± 0.1 relative to control, the “LC3-II/LC3-I ratio (relative to control)” value (LC3; adenine 20 microM) was 1.8 ± 0.3 relative to control and the “LC3-II/LC3-I ratio (relative to control)” value (LC3; adenine 30 microM) was 2.8 ± 0.2 relative to control. The “LC3-II/LC3-I ratio (relative to control)” value (LC3; adenine 40 microM) was 2.9 ± 0.2 relative to control, the “LC3-II/LC3-I ratio (relative to control)” value (LC3; adenine 50 microM) was 3.2 ± 0.3 relative to control and the “AMPK activation (fold to control)” value (AMPK [4]; adenine 1 microM) was 1.1 fold to control. For the same compound, the “AMPK activation (fold to control)” value (AMPK [4]; adenine 10 microM) was 2.1 fold to control, the “AMPK activation (fold to control)” value (AMPK [4]; adenine 100 microM) was 3.3 fold to control and the “AMPK activation (fold to control)” value (AMPK [4]; adenine 200 microM) was 3.8 fold to control. The “AMPK activation (fold to control)” value (AMPK [4]; adenine 600 microM) was 4.2 fold to control.
